Values of other authors as cited in publication PMC11979685, “Synthesis of Derivatives of the Antibiotic Albicidin: The N‐Terminal Fragment as Key to Control Potency and Resistance Mediated by the Binding Protein AlbA” (Chemistry (Weinheim an Der Bergstrasse, Germany), 2025).
Converted amounts (≈) assume the structure as drawn.

How the values were obtained:
Design in all cases: method as in PMID 36741192
E. coli DSM1116 = details: already published elsewhere; cited from earlier work
E. coli BW25113 = details: already published elsewhere; cited from earlier work
[1] = system: Micrococcus luteus DSM 1790; details: already published elsewhere; cited from earlier work
[2] = system: Salmonella typhimurium TA100; details: already published elsewhere; cited from earlier work
E. coli = E. coli in presence of 50 % human serum; already published elsewhere; cited from earlier work
[3] = system: Mycobacterium phlei DSM 750; details: already published elsewhere; cited from earlier work
E. coli DNA gyrase = E. coli DNA gyrase (Escherichia coli, UniProt P0AES4); details: E. coli gyrase DNA cleavage; already published elsewhere; read-out: CC50 (concentration at half-maximum cleavage); cited from earlier work
Bacillus subtilis DSM 10 = details: already published elsewhere; cited from earlier work

Sequence of E. coli DNA gyrase (P0AES4 whole entry): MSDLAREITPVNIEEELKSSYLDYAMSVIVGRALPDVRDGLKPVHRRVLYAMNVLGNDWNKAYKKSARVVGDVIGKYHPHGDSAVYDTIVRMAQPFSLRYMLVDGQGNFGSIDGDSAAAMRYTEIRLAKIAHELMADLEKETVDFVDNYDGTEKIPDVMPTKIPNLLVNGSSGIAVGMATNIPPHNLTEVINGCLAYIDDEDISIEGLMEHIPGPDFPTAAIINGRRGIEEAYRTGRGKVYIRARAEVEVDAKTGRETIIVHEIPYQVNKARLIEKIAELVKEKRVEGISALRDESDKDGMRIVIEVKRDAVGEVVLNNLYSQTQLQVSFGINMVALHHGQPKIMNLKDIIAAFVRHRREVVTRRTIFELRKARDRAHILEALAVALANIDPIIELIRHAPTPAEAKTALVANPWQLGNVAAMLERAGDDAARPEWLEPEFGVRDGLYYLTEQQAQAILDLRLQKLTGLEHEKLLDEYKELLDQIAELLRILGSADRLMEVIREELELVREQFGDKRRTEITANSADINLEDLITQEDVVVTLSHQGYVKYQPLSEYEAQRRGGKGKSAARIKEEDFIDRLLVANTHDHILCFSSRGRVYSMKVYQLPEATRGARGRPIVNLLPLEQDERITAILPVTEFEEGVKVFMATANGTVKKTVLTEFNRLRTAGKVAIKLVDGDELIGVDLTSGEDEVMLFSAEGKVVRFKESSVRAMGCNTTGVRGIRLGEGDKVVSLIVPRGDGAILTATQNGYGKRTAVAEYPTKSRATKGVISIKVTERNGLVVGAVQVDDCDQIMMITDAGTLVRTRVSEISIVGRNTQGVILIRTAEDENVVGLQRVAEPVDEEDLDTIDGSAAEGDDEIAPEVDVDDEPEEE

COc1c(NC(=O)c2ccc(NC(=O)c3ccc(NC(=O)[C@H](Cc4c[nH]nn4)NC(=O)c4ccc(NC(=O)c5ccc6nc(C)ccc6c5)cc4)cn3)c(OC)c2O)ccc(C(=O)O)c1O [compound 16]
MIC E. coli DSM1116 (E. coli DSM1116): 0.016 µg/mL (≈ 0.0179 µM) | MIC E. coli BW25113 (E. coli BW25113): 0.016 µg/mL (≈ 0.0179 µM) | MIC M. luteus [1]: 0.063 µg/mL (≈ 0.0704 µM) | MIC S. typh. [2]: ≤0.016 µg/mL | MICEc 50%HS (E. coli): 0.5 µg/mL | MIC M. phlei [3]: 0.5 µg/mL (≈ 0.559 µM) | CC50 (E. coli DNA gyrase): 25 nM | MIC B. sub. (Bacillus subtilis DSM 10): 0.063 µg/mL (≈ 0.0704 µM)
